In PubChem BioAssay (NCI):
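Test compounds were applied to cells in 96-well plates for 48 hours at 5 doses. TGI: total growth inhibition.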

Experiments:
Experiment in all cases: NCI anticancer screen, dose series, 48 h
[1] = system: UACC-257 melanoma
[2] = system: SK-MEL-2 melanoma
[3] = system: U251 CNS
[4] = system: IGROV1 ovarian
[5] = system: 786-0 renal
[6] = system: SNB-19 CNS
[7] = system: TK-10 renal
[8] = system: OVCAR-4 ovarian
[9] = system: NCI-H522 lung
[10] = system: SK-OV-3 ovarian
[11] = system: LOX IMVI melanoma
[12] = system: COLO 205 colon
[13] = system: A498 renal
[14] = system: CCRF-CEM leukemia
[15] = system: T-47D breast
[16] = system: EKVX NSCLC
[17] = system: SF-295 CNS
[18] = system: MOLT-4 leukemia
[19] = system: NCI-H460 lung
[20] = system: OVCAR-3 ovarian

SMILES	TGI [1] [µM]	TGI [2] [µM]	TGI [3] [µM]	TGI [4] [µM]	TGI [5] [µM]	TGI [6] [µM]	TGI [7] [µM]	TGI [8] [µM]	TGI [9] [µM]	TGI [10] [µM]	TGI [11] [µM]	TGI [12] [µM]	TGI [13] [µM]	TGI [14] [µM]	TGI [15] [µM]	TGI [16] [µM]	TGI [17] [µM]	TGI [18] [µM]	TGI [19] [µM]	TGI [20] [µM]
CN(C1=NCCO1)c1cccc2c1CCCC2	> 10	> 10	> 10	8.35	> 10	> 10	> 10	7.78	> 10	> 10	5.27	3.4	9.35	8.06	> 10	> 10	> 10	> 10	> 10	–
CCOP(=O)(C=C=C(C)C)OCC	> 100	> 100	> 100	> 100	> 100	> 100	> 100	> 100	> 100	> 100	> 100	> 100	> 100	–	> 100	> 100	> 100	–	> 100	> 100
FC(F)(Sc1ccccc1)c1nc2ccccc2o1	> 100	> 100	> 100	> 100	> 100	–	> 100	> 100	> 100	69.4	–	> 100	> 100	55.5	> 100	–	> 100	52.2	> 100	> 100
c1ccc2c(c1)Nc1nc3nonc3nc1N2	> 100	> 100	> 100	> 100	> 100	> 100	> 100	> 100	> 100	> 100	> 100	> 100	> 100	> 100	> 100	> 100	> 100	> 100	> 100	–
CC(C)NC(=O)OCc1c(COC(=O)NC(C)C)n(C)c2c1ccc1ccccc12	2.99	4.09	4.24	3.23	2.5	3.74	3.04	9.19	0.298	22.2	2.6	3.83	3.01	–	1.48	10.4	17.2	> 25.4	7.7	12.4
N#CCCN(CCC#N)c1ccc(/C=C2\N=C(c3ccccc3)N(c3ccccn3)C2=O)cc1	> 100	> 100	> 100	> 100	> 100	> 100	> 100	> 100	–	> 100	> 100	> 100	> 100	> 100	> 100	> 100	> 100	> 100	> 100	> 100
Cc1n[nH]c(=O)n1/N=C/c1c[nH]c2ccccc12	> 100	> 100	> 100	> 100	> 100	> 100	–	> 100	> 100	> 100	–	> 100	> 100	> 100	> 100	> 100	> 100	> 100	> 100	> 100
CCOC(=O)CCC(NC(=O)c1ccc(Nc2nc3ccccc3nc2-c2cccs2)cc1)C(=O)OCC (stereo unspecified)	> 100	94.5	> 100	> 100	> 100	> 100	> 100	> 100	–	> 100	> 100	> 100	> 100	> 100	> 100	> 100	> 100	> 100	> 100	> 100
CCOC(=O)C1=c2[nH]c3cccc4cccc(c43)n2C=C(C(C)=O)C1CC(C)=O (stereo unspecified)	> 100	> 100	> 100	> 100	> 100	> 100	> 100	> 100	–	> 100	> 100	> 100	> 100	> 100	> 100	> 100	> 100	> 100	> 100	> 100
COc1cccc(/C=C2\CCCCCC2=O)c1	> 100	> 100	> 100	> 100	> 100	> 100	> 100	> 100	> 100	> 100	> 100	> 100	> 100	–	> 100	> 100	> 100	> 100	> 100	> 100
O=C(NCCO)Nc1c(C(F)(F)F)cc(-c2ccccc2)[nH]c1=O	> 100	> 100	> 100	> 100	> 100	> 100	> 100	> 100	–	> 100	> 100	> 100	> 100	> 100	> 100	> 100	> 100	> 100	> 100	> 100
CCCCCCCCCCCCCCCCCCOCC(CO[P+](=O)O)OCCCCCCCCCCCCCCCCCC (stereo unspecified)	> 50	> 50	> 50	> 50	> 50	> 50	> 50	> 50	> 50	> 50	> 50	> 50	> 50	–	> 50	> 50	–	> 50	> 50	> 50
COC(=O)CCn1cnc2c(SC)ncnc21	> 100	–	–	> 100	> 100	> 100	> 100	> 100	> 100	> 100	> 100	> 100	> 100	> 100	> 100	> 100	> 100	> 100	> 100	> 100
